For assay [1], the target named is T1, myeloperoxidase (Homo sapiens, UniProt P05164).
T1 sequence (P05164 49-745): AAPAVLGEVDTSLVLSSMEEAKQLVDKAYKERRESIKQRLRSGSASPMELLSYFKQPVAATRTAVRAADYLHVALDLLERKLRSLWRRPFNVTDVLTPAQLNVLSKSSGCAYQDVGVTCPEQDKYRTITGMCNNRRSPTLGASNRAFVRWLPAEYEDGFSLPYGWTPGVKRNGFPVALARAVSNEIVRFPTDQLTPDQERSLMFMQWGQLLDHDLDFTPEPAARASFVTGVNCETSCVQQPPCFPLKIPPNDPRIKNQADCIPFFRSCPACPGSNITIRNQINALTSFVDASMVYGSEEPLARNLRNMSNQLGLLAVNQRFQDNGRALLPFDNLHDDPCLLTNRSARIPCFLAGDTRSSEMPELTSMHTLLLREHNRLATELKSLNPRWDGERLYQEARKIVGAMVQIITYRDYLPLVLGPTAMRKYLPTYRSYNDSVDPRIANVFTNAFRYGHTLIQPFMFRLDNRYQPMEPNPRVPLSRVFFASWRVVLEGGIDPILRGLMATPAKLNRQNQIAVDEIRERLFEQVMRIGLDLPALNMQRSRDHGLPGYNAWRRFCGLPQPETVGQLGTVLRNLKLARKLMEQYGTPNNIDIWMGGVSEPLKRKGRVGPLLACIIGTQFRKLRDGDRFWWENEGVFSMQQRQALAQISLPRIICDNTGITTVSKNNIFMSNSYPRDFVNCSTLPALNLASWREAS
Kind of assay: MPO Peroxidation Assay (Amplex Red Assay). The class given is biochemical. The settings on record: potency range class; for pIC50: read-out: Amplex Red Assay IC50 value.

The target of assay [2] is T1, myeloperoxidase. Kind of assay: MPO Chlorination Assay (APF Assay). The class given is biochemical. Particulars: potency range class; for pIC50: read-out: APF Assay IC50 value.

pIC50: −log10 of the molar value.

For the compound `Nc1cc([C@H](CCCN2CCC3(CC2)NC(=O)Cc2ccccc23)c2ccccc2)c2nn[nH]c2n1` [Example 217, 1′-[(4R)-4-{5-amino-3H-[1,2,3]triazolo [4,5-b]pyridin-7-yl}-4-phenylbutyl]-3,4-dihydro-2H-spiro[isoquinoline-1,4′-piperidine]-3-one], the pIC50 on myeloperoxidase [1] and on myeloperoxidase [2] was 6.00 to 7.00 throughout.

For the compound `Nc1cc(C(CCN[C@H]2CC[C@H](n3cncn3)CC2)c2ccccc2)c2nn[nH]c2n1` (stereo partly drawn) [Example 146, 7-(1-phenyl-3-{[(trans)-4-(1H-1,2,4-triazol-1-yl)cyclohexyl]amino}propyl)-3H-[1,2,3] triazolo[4,5-b] pyridin-5-amine], the results for the pIC50 on myeloperoxidase [1] and on myeloperoxidase [2] were 5.00 to 6.00 and 6.00 to 7.00, respectively.

Turning to `Cn1c(C[C@H](c2ccccc2)c2cc(N)nc3[nH]nnc23)nc2ccc(-c3ccccc3)cc21` [Example 257, (R)-7-(2-(1-methyl-6-phenyl-1H-benzo[d]imidazol-2-yl)-1-phenylethyl)-3H-[1,2,3]triazolo[4,5-b] pyridin-5-amine], the pIC50 (usually −log10 of the IC50, conventionally taken in molar units) at myeloperoxidase [1] is 5.00 to 6.00; on myeloperoxidase [2], 6.00 to 7.00.

With `Nc1cc(C(CCN[C@H]2CC[C@@H](c3ccc(Cl)cc3)CC2)c2ccccc2)c2nn[nH]c2n1` (some centres unmarked) [Example 107, 7-(1-phenyl-3-{[(1s,4s)-4-(4-chlorophenyl)cyclohexyl]amino}propyl)-3H-[1,2,3] triazolo[4,5-b] pyridin-5-amine], the pIC50 on myeloperoxidase [1] is 6.00 to 7.00; on myeloperoxidase [2] it was 7.00 to 9.00.

Turning to `CC1CC2(NCCC(c3ccccc3)c3cc(N)nc4[nH]nnc34)CCC1(c1ccccc1)CC2` (centres unmarked) [Example 147, 7-[3-({3-methyl-4-phenylbicyclo[2.2.2]octan-1-yl}amino)-1-phenylpropyl]-3H-[1,2,3]triazolo [4,5-b]pyridin-5-amine], the pIC50 at myeloperoxidase [1] and at myeloperoxidase [2] was 7.00 to 9.00 throughout.

As to `COC1CC2(c3ccccc3)CCC1(NCC[C@H](c1ccccc1)c1cc(N)nc3[nH]nnc13)CC2` (stereo partly drawn) [Example 153, 7-[(1R)-3-({2-methoxy-4-phenylbicyclo[2.2.2]octan-1-yl}amino)-1-phenylpropyl]-3H-[1,2,3]triazolo[4,5-b]pyridin-5-amine], the negative-log IC50 (pIC50) at myeloperoxidase [1] and on myeloperoxidase [2] was 7.00 to 9.00 in each case.

In the case of `N#Cc1ccc(-c2ccc3nc(C[C@H](c4ccccc4)c4cc(N)nc5[nH]nnc45)[nH]c3c2)cc1` [Example 255, (R)-4-(2-(2-(5-amino-3H-[1,2,3]triazolo[4,5-b]pyridin-7-yl)-2-phenylethyl)-1H-benzo[d]imidazol-6-yl)benzonitrile], the pIC50 on myeloperoxidase [1] was 5.00 to 6.00; on myeloperoxidase [2] it was 7.00 to 9.00.

Turning to `Nc1cc(C(CCN[C@H]2CC[C@H](c3ccccc3)CC2)c2cccc(S(N)(=O)=O)c2)c2nn[nH]c2n1` (stereo partly drawn) [Example 165, 3-(1-{5-amino-3H-[1,2,3]triazolo [4,5-b]pyridin-7-yl}-3-{[(trans)-4-phenylcyclohexyl]amino}propyl) benzene-1-sulfonamide], the pIC50 at myeloperoxidase [1] and on myeloperoxidase [2] was 6.00 to 7.00 each time.

As for `Nc1cc([C@H](Cc2nc3ccccc3[nH]2)c2ccccc2)c2nn[nH]c2n1` [Example 261, (R)-7-(2-(1H-benzo [d]imidazol-2-yl)-1-phenylethyl)-3H-[1,2,3]triazolo[4,5-b] pyridin-5-amine], the figures for the pIC50 at myeloperoxidase [1] and at myeloperoxidase [2] were 6.00 to 7.00 and 5.00 to 6.00, respectively.

On to `Nc1cc([C@H](Cc2nc3c(-c4cccc(C5CC5)c4)cccc3[nH]2)c2ccccc2)c2nn[nH]c2n1` [Example 251, (R)-7-(2-(4-(3-cyclopropylphenyl)-1H-benzo[d]imidazol-2-yl)-1-phenylethyl)-3H-[1,2,3]triazolo [4,5-b]pyridin-5-amine], for which the pIC50 at myeloperoxidase [1] was 5.00 to 6.00; at myeloperoxidase [2], 7.00 to 9.00.

With `CN(C)C(=O)c1cccc(CNCCC(c2ccccc2)c2cc(N)nc3[nH]nnc23)c1` (centres unmarked) [Example 72, 3-{[(3-{5-amino-3H-[1,2,3]triazolo[4,5-b]pyridin-7-yl}-3-phenylpropyl)amino]methyl}-N,N-dimethylbenzamide], the pIC50 at myeloperoxidase [1] and at myeloperoxidase [2] was 6.00 to 7.00 throughout.

Take `Nc1cc(C(CCNCCCc2ccccc2)c2ccccc2)c2nn[nH]c2n1` (centres unmarked) [Example 106, 7-{1-phenyl-3-[(3-phenylpropyl)amino]propyl}-3H-[1,2,3] triazolo[4,5-b] pyridin-5-amine]: the pIC50 on myeloperoxidase [1] and on myeloperoxidase [2] was 6.00 to 7.00 throughout.

Take `Nc1cc(C(CCN[C@H]2CC[C@H](c3ccc(Cl)cc3)CC2)c2ccccc2)c2nn[nH]c2n1` (stereo partly drawn) [Example 108, 7-(1-phenyl-3-{[(trans)-4-(4-chlorophenyl)cyclohexyl]amino}propyl)-3H-[1,2,3] triazolo[4,5-b] pyridin-5-amine]: the pIC50 at myeloperoxidase [1] is 6.00 to 7.00; at myeloperoxidase [2], 7.00 to 9.00.

With `Nc1cc(C(CCNCC2CCCCC2)c2ccccc2)c2nn[nH]c2n1` (centres unmarked) [Example 23, 7-{3-[(cyclohexylmethyl)amino]-1-phenylpropyl}-3H-[1,2,3]triazolo[4,5-b] pyridin-5-amine], the pIC50 on myeloperoxidase [1] and on myeloperoxidase [2] was 6.00 to 7.00 throughout.

For the compound `Nc1cc([C@H](Cc2nc3cccc(-c4ccccc4)c3[nH]2)c2ccccc2)c2nn[nH]c2n1` [Example 238, (R)-7-(1-phenyl-2-(7-phenyl-1H-benzo[d]imidazol-2-yl)ethyl)-3H-[1,2,3]triazolo[4,5-b]pyridin-5-amine], the pIC50 at myeloperoxidase [1] was 6.00 to 7.00; on myeloperoxidase [2], 7.00 to 9.00.

Take `Nc1cc(C(CCNCC2CC2c2ccc(F)cc2)c2ccccc2)c2nn[nH]c2n1` (centres unmarked) [Example 176, 7-[3-({[2-(4-fluorophenyl)cyclopropyl]methyl}amino)-1-phenylpropyl]-3H-[1,2,3]triazolo[4,5-b]pyridin-5-amine]: the pIC50 at myeloperoxidase [1] is 6.00 to 7.00; on myeloperoxidase [2] it was 7.00 to 9.00.

As to `Nc1cc([C@H](CCCN2CC[C@H]3C[C@@H]2Cc2ccccc23)c2ccccc2)c2nn[nH]c2n1` [Example 219, 7-((R)-1-phenyl-4-((2R,6S)-1,4,5,6-tetrahydro-2,6-methanobenzo[d]azocin-3(2H)-yl)butyl)-3H-[1,2,3] triazolo[4,5-b] pyridin-5-amine], the IC50 (in general, the concentration that inhibits the measured activity by half) at myeloperoxidase [1] (Amplex Red Assay IC50 value (μM)) fell in the range of 0.101 to 0.999 µM; on myeloperoxidase [2] (APF Assay IC50 value (μM)), 0.001 to 0.1 µM.

Consider `Nc1cc([C@H](CCO)c2ccccc2)c2nn[nH]c2n1` [Example 237, (R)-3-(5-amino-3H-[1,2,3]triazolo[4,5-b]pyridin-7-yl)-3-phenylpropan-1-ol], for which the pIC50 on myeloperoxidase [1] and on myeloperoxidase [2] was 6.00 to 7.00 each time.

Turning to `Nc1cc(C(CCN2CCC(c3ccccc3)CC2)c2ccccc2)c2nn[nH]c2n1` (centres unmarked) [Example 186, 7-[1-phenyl-3-(4-phenylpiperidin-1-yl)propyl]-3H-[1,2,3] triazolo[4,5-b] pyridin-5-amine], the figures for the pIC50 at myeloperoxidase [1] and on myeloperoxidase [2] were 5.00 to 6.00 and 6.00 to 7.00, respectively.

Consider `Nc1cc(C(CCN[C@H]2CC[C@H](c3ccc(=O)[nH]c3)CC2)c2ccccc2)c2nn[nH]c2n1` (stereo partly drawn) [Example 134, 5-[(trans)-4-[(3-{5-amino-3H-[1,2,3]triazolo[4,5-b]pyridin-7-yl}-3-phenylpropyl)amino]cyclohexyl]-1,2-dihydropyridin-2-one], for which the pIC50 on myeloperoxidase [1] and on myeloperoxidase [2] was 6.00 to 7.00 each time.

`Nc1cc([C@H](CCN2CCC(O)(Cc3ccccc3)CC2)c2ccccc2)c2nn[nH]c2n1` [Example 185, 1-[(3R)-3-{5-amino-3H-[1,2,3]triazolo [4,5-b]pyridin-7-yl}-3-phenylpropyl]-4-benzylpiperidin-4-ol]: the pIC50 on myeloperoxidase [1] was 5.00 to 6.00; at myeloperoxidase [2] it was 7.00 to 9.00.

For the compound `Nc1cc(C(CCN[C@H]2CC[C@H](c3ccccc3)CC2)c2cccc(CO)c2)c2nn[nH]c2n1` (stereo partly drawn) [Example 164, [3-(1-{5-amino-3H-[1,2,3]triazolo [4,5-b]pyridin-7-yl}-3-{[(trans)-4-phenylcyclohexyl]amino}propyl)phenyl]methanol], the pIC50 was 5.00 to 6.00 on myeloperoxidase [1] and 7.00 to 9.00 at myeloperoxidase [2].

As to `Cn1c(C[C@H](c2ccccc2)c2cc(N)nc3[nH]nnc23)nc2c(-c3ccccc3)cccc21` [Example 262, (R)-7-(2-(1-methyl-4-phenyl-1H-benzo[d]imidazol-2-yl)-1-phenylethyl)-3H-[1,2,3]triazolo [4,5-b]pyridin-5-amine], the pIC50 on myeloperoxidase [1] and on myeloperoxidase [2] was 5.00 to 6.00 throughout.

`CC1(NCCC(c2ccccc2)c2cc(N)nc3[nH]nnc23)CCC(c2ccccc2)CC1` (mixture of isomers) [Example 143, 7-{3-[(1-methyl-4-phenylcyclohexyl)amino]-1-phenylpropyl}-3H-[1,2,3]triazolo[4,5-b]pyridin-5-amine]: the pIC50 at myeloperoxidase [1] and at myeloperoxidase [2] was 6.00 to 7.00 in each case.

As to `Nc1cc(C(CCNC2CC(c3ccccc3)C2)c2ccccc2)c2nn[nH]c2n1` (single isomer, unassigned) [Example 80, 7-{1-phenyl-3-[(3-phenylcyclobutyl)amino]propyl}-3H-[1,2,3]triazolo[4,5-b] pyridin-5-amine], the pIC50 on myeloperoxidase [1] was 6.00 to 7.00; at myeloperoxidase [2] it was 7.00 to 9.00.

Values taken from patent publication US11008317B2, “Triazolopyridine inhibitors of myeloperoxidase and/or EPX” (priority 2016, dated 2021).
